The results in this text go back to patent US20260284028A1, “FUSED BICYCLIC HETEROCYCLYL COMPOUNDS AS CCR4 MODULATORS” (AURIGENE ONCOLOGY LIMITED, priority 2023, published 2026).

Where two headings read alike, the source gives them in different places. Where only a bound is given, the exact number is not on record here.

The target of this experiment is T1, CCR4 (Homo sapiens, UniProt P51679).
T1 construct: expressed in transfected cells; host or cells: CHO-K1
T1 sequence (P51679 1-360): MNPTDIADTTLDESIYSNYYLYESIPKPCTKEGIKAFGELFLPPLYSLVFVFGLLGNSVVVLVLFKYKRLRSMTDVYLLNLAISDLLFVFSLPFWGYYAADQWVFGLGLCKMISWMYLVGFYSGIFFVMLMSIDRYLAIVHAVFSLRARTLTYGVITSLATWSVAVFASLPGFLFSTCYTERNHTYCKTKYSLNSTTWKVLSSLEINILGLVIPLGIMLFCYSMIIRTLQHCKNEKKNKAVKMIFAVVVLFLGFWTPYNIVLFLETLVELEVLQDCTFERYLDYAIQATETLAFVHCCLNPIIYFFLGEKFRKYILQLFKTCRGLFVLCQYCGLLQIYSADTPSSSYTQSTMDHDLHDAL
As to the kind of experiment: β-Arrestin recruitment assay (CHO-K1 CCR4 β-Arrestin cells stimulated with recombinant human CCL22). The class given is cell-based. Particulars: CCL22 10 nM stimulation; for IC50: read-out: CCR4 antagonistic activity IC50 (μM) in range; for inhibition: read-out: % inhibition at 5 μM/30 μM (% E-Max). The protocol: CHO-K1 CCR4 β-Arrestin cells were seeded and incubated overnight at 37° C. in a CO2 incubator for adherence. Next day, cells were pretreated with various concentrations of CCR4 modulators for 30 mins at 37° C. The cells were stimulated with recombinant human CCL22 (10 nM) and further incubated for 90 mins. Working detection solution was added and incubated at room temperature for 1 hour after which the chemiluminescent signal was read using a luminometer.
Exemplary compounds of the present application were screened by the above-mentioned assay and the results were tabulated.
In general terms: Recruitment of arrestin is a read-out of receptor activation apart from second messengers.

[1] abbreviates: CHO-K1, read-out: % inhibition 30 μM (% E-Max).

In the case of `C[C@@H](Nc1c(F)ccc2nc(N3CC([C@H]4CCCN([C@H]5C[C@](C)(C(=O)O)C5)C4)C3)oc12)c1ccc(Cl)cc1Cl` [Compound 6], the IC50 was < 0.25 µM. For the same compound, the inhibition (CHO-K1, at 30 μM) came out at 104%. For `C[C@@H](Nc1cc(Cl)cc2nc(N3CC([C@H]4CCCN([C@H]5C[C@](C)(C(=O)O)C5)C4)C3)oc12)c1ccc(Cl)cc1Cl` [Compound 7], the IC50 was in the range of 0.25 to 0.5 µM. For the setting “CHO-K1, at 30 μM”, the inhibition came to 101%.

For the compound `C[C@@H](Nc1cccc2nc(N3CC([C@H]4CCCN([C@H]5C[C@](C)(C(=O)O)C5)C4)C3)sc12)c1ccc(Cl)cc1Cl` [Compound 8], the IC50 is 0.25 to 0.5 µM. The inhibition under setting [1] worked out at 102%. On to `Cc1cc2nc(N3CC([C@H]4CCCN([C@H]5C[C@](C)(C(=O)O)C5)C4)C3)oc2c(N[C@H](C)c2ccc(Cl)cc2Cl)c1Cl` [Compound 9], for which the IC50 is < 0.25 µM. Further, under setting [1], the inhibition turned out to be 103%.

For the compound `COc1ccc2nc(N3CC([C@H]4CCCN([C@H]5C[C@](C)(C(=O)O)C5)C4)C3)oc2c1N[C@H](C)c1ccc(Cl)cc1Cl` [Compound 10], the IC50 fell in the range of 0.25 to 0.5 µM. Besides, under setting [1], the inhibition came to 93%. The like results for `C[C@@H](Nc1c(OC(F)F)ccc2nc(N3CC([C@H]4CCCN([C@H]5C[C@](C)(C(=O)O)C5)C4)C3)oc12)c1ccc(Cl)cc1Cl` [Compound 11] were, in that order, < 0.25 µM and 101%. For the compound `C[C@@H](Nc1c(OC(F)(F)F)ccc2nc(N3CC([C@H]4CCCN([C@H]5C[C@](C)(C(=O)O)C5)C4)C3)oc12)c1ccc(Cl)cc1Cl` [Compound 12], the IC50 lay within 0.25 to 0.5 µM. The inhibition under setting [1] was found to be 99.3%. The like results for `C[C@@H](Nc1c(C(F)(F)F)ccc2nc(N3CC([C@H]4CCCN([C@H]5C[C@](C)(C(=O)O)C5)C4)C3)oc12)c1ccc(Cl)cc1Cl` [Compound 13] were, in that order, < 0.25 µM and 101%. Regarding `C[C@@H](Nc1nccc2nc(N3CC([C@H]4CCCN([C@H]5C[C@](C)(C(=O)O)C5)C4)C3)oc12)c1ccc(Cl)cc1Cl` [Compound 14], the IC50 was 0.25 to 0.5 µM. The inhibition under setting [1] worked out at 96.4%. On the same counts, the results for `C[C@@H](Nc1cncc2nc(N3CC([C@H]4CCCN([C@H]5C[C@](C)(C(=O)O)C5)C4)C3)oc12)c1ccc(Cl)cc1Cl` [Compound 15] are 0.25 to 0.5 µM and 101%.

As for `C[C@@H](Nc1ccnc2nc(N3CC([C@H]4CCCN([C@H]5C[C@](C)(C(=O)O)C5)C4)C3)oc12)c1ccc(Cl)cc1Cl` [Compound 16], the IC50 was < 0.25 µM. Further, under setting [1], the inhibition was found to be 103%. The like results for `C[C@@H](Nc1c(Cl)cnc2nc(N3CC([C@H]4CCCN([C@H]5C[C@](C)(C(=O)O)C5)C4)C3)oc12)c1ccc(Cl)cc1Cl` [Compound 17] were, in that order, 0.25 to 0.5 µM and 102%.

For the compound `Cc1ccc2nc(N3CC([C@H]4CCCN([C@H]5C[C@](C)(C(=O)O)C5)C4)C3)oc2c1N[C@H](C)c1ccc(Cl)cc1Cl` [Compound 18], the IC50 is < 0.25 µM. Moreover, under setting [1], the inhibition came out at 103%.

Consider `C[C@@H](Nc1c(C(N)=O)ccc2nc(N3CC([C@H]4CCCN([C@H]5C[C@](C)(C(=O)O)C5)C4)C3)oc12)c1ccc(Cl)cc1Cl` [Compound 19], for which the IC50 was in the range of 0.25 to 0.5 µM. The inhibition under setting [1] came to 93.8%. `C[C@@H](Nc1c(C(=O)N(C)C)ccc2nc(N3CC([C@H]4CCCN([C@H]5C[C@](C)(C(=O)O)C5)C4)C3)oc12)c1ccc(Cl)cc1Cl` [Compound 20]: the inhibition under setting [1] stood at 41.5%. `C[C@@H](Nc1c(C#N)ccc2nc(N3CC([C@H]4CCCN([C@H]5C[C@](C)(C(=O)O)C5)C4)C3)oc12)c1ccc(Cl)cc1Cl` [Compound 21]: the IC50 is < 0.25 µM. Further, the inhibition under setting [1] stood at 103%. In the case of `C[C@@H](Nc1cccc2nc(N3CC([C@H]4CCCN([C@H]5C[C@](C)(C(=O)O)C5)C4)C3)n(C)c12)c1ccc(Cl)cc1Cl` [Compound 22], the inhibition (CHO-K1, at 30 μM) was 29.5%. For `C[C@@H](Nc1c(Cl)ccc2nc(N3CC([C@H]4CCCN([C@H]5C[C@](C)(C(=O)O)C5)C4)C3)sc12)c1ccc(Cl)cc1Cl` [Compound 23], the IC50 is < 0.25 µM. The inhibition under setting [1] turned out to be 104%. For `C[C@@H](Nc1c(Cl)ccc2nc(N3CC([C@H]4CCCN(C5(CC(=O)O)CCC5)C4)C3)oc12)c1ccc(Cl)cc1Cl` [Compound 24], the inhibition under setting [1] came to 61%. For `C[C@@H](Nc1c(F)ccc2nc(N3CC([C@H]4CCCN([C@H]5C[C@](C)(C(=O)O)C5)C4)C3)sc12)c1ccc(Cl)cc1Cl` [Compound 25], the IC50 was < 0.25 µM. Moreover, the inhibition under setting [1] was found to be 101%.

Take `C[C@@H](Nc1c(F)ccc2nc(N3CC(C4CN([C@H]5C[C@](C)(C(=O)O)C5)CCO4)C3)sc12)c1ccc(Cl)cc1Cl` (stereo partly shown) [Compound 26]: the IC50 is < 0.25 µM. For the same compound, under setting [1], the inhibition was 103%. Consider `C[C@@H](Nc1c(F)ccc2nc(N3CC([C@H]4CCCN([C@H]5C[C@](C)(C(=O)O)C5)C4)C3)sc12)c1ccc(F)cc1F` [Compound 29], for which the IC50 was < 0.25 µM. Also, under setting [1], the inhibition was determined as 103%. `C[C@@H](Nc1c(F)ncc2nc(N3CC([C@H]4CCCN([C@H]5C[C@](C)(C(=O)O)C5)C4)C3)sc12)c1ccc(Cl)cc1Cl` [Compound 30]: the IC50 was < 0.25 µM. Under setting [1], the inhibition was found to be 103%. Consider `C[C@@H](Nc1ncnc2nc(N3CC([C@H]4CCCN([C@H]5C[C@](C)(C(=O)O)C5)C4)C3)sc12)c1ccc(Cl)cc1Cl` [Compound 32, (1R,3r)-3-((R)-3-(1-(7-(((R)-1-(2,4-Dichlorophenyl)ethyl)amino)thiazolo[4,5-d]pyrimidin-2-yl)azetidin-3-yl)piperidin-1-yl)-1-methylcyclobutane-1-carboxylic acid], for which the IC50 was < 0.25 µM. Also, the inhibition under setting [1] is 104%. As to `Cc1nc(N[C@H](C)c2ccc(Cl)cc2Cl)c2sc(N3CC([C@H]4CCCN([C@H]5C[C@](C)(C(=O)O)C5)C4)C3)nc2n1` [Compound 33], the IC50 is < 0.25 µM. Besides, the inhibition under setting [1] stood at 103%. As to `C[C@@H](Nc1nc(C(F)(F)F)nc2nc(N3CC([C@H]4CCCN([C@H]5C[C@](C)(C(=O)O)C5)C4)C3)sc12)c1ccc(Cl)cc1Cl` [Compound 34], the IC50 was in the range of 0.25 to 0.5 µM. Further, under setting [1], the inhibition came out at 102%. In the case of `C[C@@H](Nc1c(F)ccc2nc(N3CC([C@H]4CCCN([C@H]5C[C@](C)(C(=O)O)C5)C4)C3)sc12)c1ncc(Cl)cc1Cl` [Compound 36, (1R,3r)-3-((R)-3-(1-(7-(((R)-1-(3,5-dichloropyridin-2-yl)ethyl)amino)-6-fluorobenzo[d]thiazol-2-yl)azetidin-3-yl)piperidin-1-yl)-1-methylcyclobutane-1-carboxylic acid], the IC50 was < 0.25 µM and the “% inhibition at 5 μM/30 μM (% E-Max)” value amounted to 103% at 5 μM. On to `C[C@@H](Nc1c(F)ccc2nc(N3CC([C@H]4CCCN([C@H]5C[C@](C)(C(=O)O)C5)C4)C3)sc12)c1ncc(Cl)cc1Cl` [Compound 37, (1R,3r)-3-((R)-3-(1-(7-(((S)-1-(3,5-dichloropyridin-2-yl)ethyl)amino)-6-fluorobenzo[d]thiazol-2-yl)azetidin-3-yl)piperidin-1-yl)-1-methylcyclobutane-1-carboxylic acid], for which the IC50 is > 0.5 µM and the “% inhibition at 5 μM/30 μM (% E-Max)” value worked out at 78% at 5 μM. Regarding `CC(Nc1c(F)ccc2nc(N3CC([C@H]4CCCN([C@H]5C[C@](C)(C(=O)O)C5)C4)C3)sc12)c1ncc(F)cc1F` (stereo partly shown) [Compound 38], the IC50 lay in the range of 0.25 to 0.5 µM. The inhibition under setting [1] turned out to be 81%. As to `C[C@@H](Nc1c(F)ccc2nc(N3CC([C@H]4CCCN([C@H]5C[C@](C)(C(=O)O)C5)C4)C3)sc12)c1ncc(F)cc1F` [Compound 39], the inhibition under setting [1] worked out at 39%.

Take `C[C@H](Nc1c(F)ccc2nc(N3CC([C@H]4CCCN([C@H]5C[C@](C)(C(=O)O)C5)C4)C3)sc12)c1ncc(F)cc1F` [Compound 40]: the IC50 was in the range of 0.25 to 0.5 µM. Under setting [1], the inhibition turned out to be 84%. As for `CC(Nc1c(F)cnc2nc(N3CC([C@H]4CCCN([C@H]5C[C@](C)(C(=O)O)C5)C4)C3)sc12)c1ncc(Cl)cc1Cl` (stereo partly shown) [Compound 41], the IC50 was 0.25 to 0.5 µM. Under setting [1], the inhibition turned out to be 101%. In the case of `CC(Nc1c(F)cnc2nc(N3CC([C@H]4CCCN([C@H]5C[C@](C)(C(=O)O)C5)C4)C3)sc12)c1ncc(F)cc1F` (stereo partly shown) [Compound 44], the IC50 lay within 0.25 to 0.5 µM. Further, the inhibition under setting [1] is 99%. On to `CC(Nc1c(OC(F)F)ccc2nc(N3CC([C@H]4CCCN([C@H]5C[C@](C)(C(=O)O)C5)C4)C3)sc12)c1ncc(Cl)cc1Cl` (stereo partly shown) [Compound 47], for which the IC50 was > 0.5 µM. Also, the inhibition under setting [1] amounted to 93%. Consider `C[C@@H](Nc1c(OC(F)F)ccc2nc(N3CC([C@H]4CCCN([C@H]5C[C@](C)(C(=O)O)C5)C4)C3)sc12)c1ncc(Cl)cc1Cl` [Compound 48], for which the inhibition under setting [1] is 52%. Take `C[C@H](Nc1c(OC(F)F)ccc2nc(N3CC([C@H]4CCCN([C@H]5C[C@](C)(C(=O)O)C5)C4)C3)sc12)c1ncc(F)cc1F` [Compound 52]: the IC50 is > 0.5 µM. Further, where the note is “CHO-K1, at 30 μM”, the inhibition is 99%.

By IC50 is commonly meant the concentration that gives 50% inhibition.
